Patent US20260007133A1, “HERBICIDAL COMPOSITION COMPRISING AZINE COMPOUNDS” (BASF SE, priority 2022, published 2026)

What was measured:
Assay type in all cases: in vivo
Geranium pusillum = experiment: Greenhouse post-emergence (POST) herbicidal test on GERPU
Method: (§1) The culture containers used were plastic pots containing loamy sand with approximately 3.0% of humus as substrate. The seeds of the test plants were sown separately for each species.
(§2) For the post-emergence treatment, the test plants were grown to a plant height of from 3 to 15 cm, depending on the plant habit, and only then treated with the active compounds which had been suspended or emulsified in water. To this end, the test plants were either sown directly, and grown in the same containers, or they were first grown separately as seedlings and transplanted into the test containers a few days prior to treatment.
(§3) Depending on the species, the plants were kept at 10-25° C. and 20-35° C., respectively.
(§4) The test period extended over 2 to 4 weeks. During this time, the plants were tended and their response to the individual treatments was evaluated.
(§5) Evaluation was carried out using a scale from 0 to 100. 100 means no emergence of the plants, or complete destruction of at least the above-ground parts, and 0 means no damage or normal course of growth. A good herbicidal activity is given at values of at least 70, and very good herbicidal activity is given at values of at least 85.
(§6) If not stated differently, the respective components A and B, and if appropriate, C were formulated as a 5% by weight strength emulsion concentrate and, with addition of the amount of solvent system, introduced into the spray liquor used for applying the active compound.
(§7) As indicated application was either post emergent (POST) at the respective growth stage (GS) of the weed (BBCH code), or pre-emergent (PRE). […]

Echinochloa crus-galli [1] = experiment: Greenhouse post-emergence (POST) herbicidal test on ECHCG
Method: as §1, §2, §3, §4, §5, §6, §7

Euphorbia heterophylla [2] = experiment: Greenhouse post-emergence (POST) herbicidal test on EPHHL
Method: as §1, §2, §3, §4, §5, §6, §7

Digitaria sanguinalis = experiment: Greenhouse post-emergence (POST) herbicidal test on DIGSA; settings: Digitaria sanguinalis, post-emergence, 432 h, read-out: % activity
Method: as §1, §2, §3, §4, §5, §6, §7

Abutilon theophrasti [3] = experiment: Greenhouse pre-emergence (PRE) herbicidal test on ABUTH; settings: Abutilon theophrasti, pre-emergence, read-out: % activity
Method: as §1
(§8) The containers were irrigated gently to promote germination and growth and subsequently covered with transparent plastic hoods until the plants had rooted.
as §3, §4, §5, §7

Commelina benghalensis = experiment: Greenhouse pre-emergence (PRE) herbicidal test on COMBE; settings: Commelina benghalensis, pre-emergence, 432 h, read-out: % activity
Method: as §1, §8, §3, §4, §5, §7

Lolium multiflorum = experiment: Greenhouse pre-emergence (PRE) herbicidal test on LOLMU; settings: Lolium multiflorum, pre-emergence, read-out: % activity
Method: as §1, §8, §3, §4, §5, §7

Amaranthus retroflexus = experiment: Greenhouse post-emergence (POST) herbicidal test on AMARE
Method: as §1, §2, §3, §4, §5, §6, §7

Euphorbia heterophylla [4] = experiment: Greenhouse pre-emergence (PRE) herbicidal test on EPHHL; settings: Euphorbia heterophylla, pre-emergence, read-out: % activity
Method: as §1, §8, §3, §4, §5, §7

Echinochloa crus-galli [5] = experiment: Greenhouse pre-emergence (PRE) herbicidal test on ECHCG; settings: Echinochloa crus-galli, pre-emergence, 432 h, read-out: % activity
Method: as §1, §8, §3, §4, §5, §7

Alopecurus myosuroides = experiment: Greenhouse pre-emergence (PRE) herbicidal test on ALOMY; settings: Alopecurus myosuroides, pre-emergence, 432 h, read-out: % activity
Method: as §1, §8, §3, §4, §5, §7

Setaria viridis = experiment: Greenhouse pre-emergence (PRE) herbicidal test on SETVI; settings: Setaria viridis, pre-emergence, read-out: % activity
Excerpt: as §1
For the pre-emergence treatment, the active compounds, suspended or emulsified in water, were applied directly after sowing by means of finely distributing nozzles. The containers were irrigated gently to promote germination and growth and subsequently covered with transparent plastic hoods until the plants had rooted. This cover caused uniform germination of the test plants unless this was adversely affected by the active compounds.
as §3, §4, §5, §6, §7

Abutilon theophrasti [6] = experiment: Greenhouse post-emergence (POST) herbicidal test on ABUTH; settings: ABUTH POST
Method: as §1, §2, §3, §4, §5, §6, §7

[7] = Geranium pusillum, post-emergence, 432 h, read-out: % activity

O=C(O)COc1ccc(Cl)cc1Cl [2,4-D]
% activity (Geranium pusillum; GERPU POST, use rate 150 gai/ha): 70%
% activity (Echinochloa crus-galli [1]; ECHCG POST, use rate 37.5 gai/ha): 20%
% activity (Euphorbia heterophylla [2]; EPHHL POST, use rate 150 gai/ha): 65%

N#Cc1cc(Br)c(O)c(Br)c1 [Bromoxynil, bromoxynil]
pest or weed control at 30 g/ha (Digitaria sanguinalis): 0%
pest or weed control at 120 g/ha (Digitaria sanguinalis): 15%
pest or weed control at 30 g/ha (Geranium pusillum; [7]): 5%
pest or weed control at 120 g/ha (Geranium pusillum; [7]): 20%
pest or weed control at 30 g/ha (Echinochloa crus-galli [1]; Echinochloa crus-galli, post-emergence, 432 h, read-out: % activity): 0%
pest or weed control at 30 g/ha (Euphorbia heterophylla [2]; Euphorbia heterophylla, post-emergence, 432 h, read-out: % activity): 70%
pest or weed control at 120 g/ha (Abutilon theophrasti [3]; 432 h): 0%
pest or weed control at 30 g/ha (Commelina benghalensis): 0%
pest or weed control at 30 g/ha (Lolium multiflorum; 432 h): 0%
pest or weed control at 120 g/ha (Lolium multiflorum; 432 h): 0%
pest or weed control at 30 g/ha (Amaranthus retroflexus; Amaranthus retroflexus, post-emergence, 432 h, read-out: % activity): 0%
pest or weed control at 30 g/ha (Euphorbia heterophylla [4]; 432 h): 0%
pest or weed control at 30 g/ha (Echinochloa crus-galli [5]): 0%
pest or weed control at 120 g/ha (Echinochloa crus-galli [5]): 0%
pest or weed control at 30 g/ha (Alopecurus myosuroides): 0%
pest or weed control at 120 g/ha (Alopecurus myosuroides): 0%

C/C(=N\NC(=O)Nc1cc(F)cc(F)c1)c1ncccc1C(=O)O [Diflufenzopyr, diflufenzopyr]
inhibition at 15 g/ha (Setaria viridis): 50%
inhibition at 3.8 g/ha (Abutilon theophrasti [3]): 0%
inhibition at 15 g/ha (Abutilon theophrasti [3]): 0%
inhibition at 3.8 g/ha (Lolium multiflorum): 0%
inhibition at 3.8 g/ha (Euphorbia heterophylla [4]): 0%

COC[C@H](C)N(C(=O)CCl)c1c(C)csc1C [Dimethenamid-P, dimethenamid-P]
% activity (Abutilon theophrasti [6]; use rate 50 gai/ha): 0%
% activity (Abutilon theophrasti [6]; use rate 200 gai/ha): 25%
% activity (Amaranthus retroflexus; AMARE POST, use rate 200 gai/ha): 0%
